Laboratory results taken from patent US6811766B1, “Ultrasound imaging with contrast agent targeted to microvasculature and a vasodilator drug” (Amersham Health AS, priority 1997, dated 2004).

Key:
[1] = tested on: healthy myocardial tissue; settings: adenosine vasodilatation; cited from earlier work
[2] = Heart rate under continuous dobutamine infusion; assay type: in vivo; settings: dog, continuous dobutamine infusion 15 μg/kg/min, stable effect; normal 100 beats per minute
Experimental: Example 1 was repeated except that a continuous infusion of dobutamine at a rate of 15 μg/kg/min was administered in place of adenosine. After a stable dobutamine effect consisting of an increase in heart rate from the normal 100 beats per minute to 150 beats per minute was obtained, the microbubble dispersion and the emulsion were intravenously injected from two syringes as a simultaneous bolus. Infusion of dobutamine was continued for another 2 minutes after the contrast agent injection.

| Structure (SMILES) | increase of coronary blood flow in healthy myocardial tissue [1] | heart rate [2] [beats per minute] |
| --- | --- | --- |
| Nc1ncnc2c1ncn2[C@@H]1O[C@H](CO)[C@@H](O)[C@H]1O [adenosine] | more than 400% | – |
| CC(CCc1ccc(O)cc1)NCCc1ccc(O)c(O)c1 (centres unmarked) [dobutamine] | – | 150 |
